Measurements published in ChEMBL document CHEMBL1125402, “Conformational effects on the activity of drugs. 13. A revision of previously proposed models for the activation of alpha- and beta-adrenergic receptors” (J Med Chem, 1992).

How the values were obtained:
[1] = molecular target: Beta-2 adrenergic receptor (Bos taurus, UniProt Q28044); experiment: Compound was evaluated for beta adrenergic binding affinity towards Beta-2 adrenergic receptor of bovine lung
[2] = molecular target: T1, Adrenergic receptor alpha-2 (Rattus norvegicus, UniProt P22086+P19328+P22909); experiment: Binding affinity towards alpha-2 adrenergic receptor of rat brain
T1 sequence (P22086 whole entry): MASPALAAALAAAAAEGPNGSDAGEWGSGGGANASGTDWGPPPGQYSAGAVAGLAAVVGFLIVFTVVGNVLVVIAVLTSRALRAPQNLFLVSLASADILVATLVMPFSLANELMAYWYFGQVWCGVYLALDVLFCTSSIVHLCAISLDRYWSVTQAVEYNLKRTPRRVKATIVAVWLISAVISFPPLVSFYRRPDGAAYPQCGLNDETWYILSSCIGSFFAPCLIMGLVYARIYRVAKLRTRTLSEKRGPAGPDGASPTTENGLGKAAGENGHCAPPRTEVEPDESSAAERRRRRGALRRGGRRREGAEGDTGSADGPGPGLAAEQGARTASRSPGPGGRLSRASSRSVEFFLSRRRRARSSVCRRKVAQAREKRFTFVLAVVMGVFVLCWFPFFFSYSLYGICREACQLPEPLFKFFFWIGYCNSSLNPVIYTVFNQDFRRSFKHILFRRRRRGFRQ
T1 sequence (P19328 whole entry): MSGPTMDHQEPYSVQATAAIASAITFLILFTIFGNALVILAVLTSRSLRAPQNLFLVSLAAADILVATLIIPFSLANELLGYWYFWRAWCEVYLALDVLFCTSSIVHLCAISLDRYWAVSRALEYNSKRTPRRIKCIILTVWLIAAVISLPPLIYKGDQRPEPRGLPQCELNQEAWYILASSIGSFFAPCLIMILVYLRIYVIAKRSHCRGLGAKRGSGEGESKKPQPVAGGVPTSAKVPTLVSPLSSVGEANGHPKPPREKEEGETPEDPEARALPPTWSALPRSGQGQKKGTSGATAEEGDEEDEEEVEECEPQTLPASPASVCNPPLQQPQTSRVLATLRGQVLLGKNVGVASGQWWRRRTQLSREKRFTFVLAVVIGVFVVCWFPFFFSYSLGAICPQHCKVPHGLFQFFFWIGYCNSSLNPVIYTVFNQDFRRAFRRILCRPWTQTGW
T1 sequence (P22909 whole entry): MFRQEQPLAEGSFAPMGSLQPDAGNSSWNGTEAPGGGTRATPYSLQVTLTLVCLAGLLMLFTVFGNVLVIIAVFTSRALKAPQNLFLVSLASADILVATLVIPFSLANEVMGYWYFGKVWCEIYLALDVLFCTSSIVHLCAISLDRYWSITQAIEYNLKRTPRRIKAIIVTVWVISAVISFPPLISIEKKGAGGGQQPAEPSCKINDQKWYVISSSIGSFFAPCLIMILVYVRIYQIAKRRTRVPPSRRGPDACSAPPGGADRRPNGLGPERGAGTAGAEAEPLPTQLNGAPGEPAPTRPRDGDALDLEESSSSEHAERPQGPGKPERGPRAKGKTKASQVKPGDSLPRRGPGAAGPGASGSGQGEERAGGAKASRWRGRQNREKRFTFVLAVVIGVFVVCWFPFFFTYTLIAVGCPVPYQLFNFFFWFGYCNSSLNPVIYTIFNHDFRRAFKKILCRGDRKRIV

[3] = molecular target: Beta-1 adrenergic receptor (Rattus norvegicus, UniProt P18090)
Description: Compound was evaluated for beta adrenergic binding affinity towards Beta-1 adrenergic receptor of rat brain

[4] = molecular target: Beta-1 adrenergic receptor (Cavia porcellus) (UniProt B0FL73)
Description: Compound was evaluated for beta adrenoceptor agonistic activity towards Beta-1 adrenergic receptor of isolated guinea pig atria (exp 2)

[5] = molecular target: T2, Adrenergic receptor alpha-1 (Rattus norvegicus, UniProt P15823+P23944+P43140); experiment: Binding affinity towards Alpha-1 adrenergic receptor of rat brain
T2 sequence (P15823 whole entry): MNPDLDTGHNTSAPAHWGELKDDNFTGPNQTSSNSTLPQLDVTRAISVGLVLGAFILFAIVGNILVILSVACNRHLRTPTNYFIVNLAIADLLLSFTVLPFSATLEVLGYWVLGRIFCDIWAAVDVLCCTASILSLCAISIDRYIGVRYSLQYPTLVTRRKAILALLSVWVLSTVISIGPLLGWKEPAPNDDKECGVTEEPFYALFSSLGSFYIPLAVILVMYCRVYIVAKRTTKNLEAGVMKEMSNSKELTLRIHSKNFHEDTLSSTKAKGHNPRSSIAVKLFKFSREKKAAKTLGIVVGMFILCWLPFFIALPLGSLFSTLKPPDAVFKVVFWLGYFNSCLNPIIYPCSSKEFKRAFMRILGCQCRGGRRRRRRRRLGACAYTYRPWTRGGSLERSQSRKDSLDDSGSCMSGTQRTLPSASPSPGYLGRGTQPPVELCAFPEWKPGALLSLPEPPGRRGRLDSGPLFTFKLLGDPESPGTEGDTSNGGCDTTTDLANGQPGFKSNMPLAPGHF
T2 sequence (P23944 whole entry): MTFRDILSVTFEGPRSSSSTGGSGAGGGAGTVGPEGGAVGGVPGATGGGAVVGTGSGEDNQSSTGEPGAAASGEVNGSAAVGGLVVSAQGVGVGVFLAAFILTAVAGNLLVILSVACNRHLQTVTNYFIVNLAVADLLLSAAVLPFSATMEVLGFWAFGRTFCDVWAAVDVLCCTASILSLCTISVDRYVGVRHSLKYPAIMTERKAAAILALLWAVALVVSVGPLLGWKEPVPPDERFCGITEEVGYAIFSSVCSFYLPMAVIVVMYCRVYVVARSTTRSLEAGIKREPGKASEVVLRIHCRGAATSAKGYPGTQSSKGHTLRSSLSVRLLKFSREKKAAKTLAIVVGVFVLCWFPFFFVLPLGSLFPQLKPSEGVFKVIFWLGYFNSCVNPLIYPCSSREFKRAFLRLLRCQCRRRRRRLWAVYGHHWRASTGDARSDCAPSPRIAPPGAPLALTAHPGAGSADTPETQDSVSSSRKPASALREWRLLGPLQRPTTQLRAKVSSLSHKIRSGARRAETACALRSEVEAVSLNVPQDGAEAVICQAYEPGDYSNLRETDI
T2 sequence (P43140 whole entry): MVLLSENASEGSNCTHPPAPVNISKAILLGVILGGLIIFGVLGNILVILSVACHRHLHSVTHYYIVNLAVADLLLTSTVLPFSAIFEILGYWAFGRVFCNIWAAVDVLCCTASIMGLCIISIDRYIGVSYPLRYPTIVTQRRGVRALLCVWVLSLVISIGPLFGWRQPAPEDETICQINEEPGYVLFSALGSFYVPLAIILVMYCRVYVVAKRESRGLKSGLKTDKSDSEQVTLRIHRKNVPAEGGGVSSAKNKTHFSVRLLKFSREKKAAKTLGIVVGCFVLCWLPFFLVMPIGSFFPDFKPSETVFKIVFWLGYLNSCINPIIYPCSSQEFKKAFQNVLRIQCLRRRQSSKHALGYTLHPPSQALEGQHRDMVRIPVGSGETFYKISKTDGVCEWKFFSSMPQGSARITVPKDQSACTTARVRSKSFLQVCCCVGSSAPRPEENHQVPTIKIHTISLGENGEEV

[6] = molecular target: Beta-2 adrenergic receptor (Cavia porcellus) (UniProt Q8K4Z4)
Description: Compound was evaluated for beta adrenoceptor agonistic activity towards Beta-2 adrenergic receptor of isolated guinea pig tracheal strip (exp 1)

[7] = Compound was evaluated for Alpha-1 adrenergic receptor agonistic activity towards alpha 1 receptor of isolated rabbit aortic strips; type: functional, Oryctolagus cuniculus
[8] = molecular target: T3, Adrenergic receptor alpha-2 (Homo sapiens) (UniProt P08913+P18825+P18089); experiment: Intrinsic activity was expressed as the ratio between maximal response elicited by compound and that elicited by full agonist NE towards alpha-2 adrenergic receptor of isolated guinea pig ileum; type: functional, tissue-based; settings: Cavia porcellus
[9] = molecular target: Beta-1 adrenergic receptor (Cavia porcellus) (UniProt B0FL73); experiment: Compound was evaluated for beta adrenoceptor agonistic activity towards Beta-1 adrenergic receptor of isolated guinea pig atria (exp 1); type: functional
[10] = molecular target: T3, Adrenergic receptor alpha-2 (Homo sapiens); experiment: Compound was evaluated for alpha adrenoceptor agonistic activity towards alpha-2 adrenergic receptor of isolated guinea pig ileum; type: functional, tissue-based; settings: Cavia porcellus, target entry is the homologue from another species
[11] = molecular target: Beta-1 adrenergic receptor (Cavia porcellus) (UniProt B0FL73); experiment: Intrinsic activity was expressed as the ratio between maximal response elicited by compound and that elicited by full agonist ISO towards beta 1 receptor of isolated guinea pig atria; type: functional
[12] = molecular target: Beta-2 adrenergic receptor (Cavia porcellus) (UniProt Q8K4Z4); remark: listed apart in the source
Description: Compound was evaluated for beta adrenoceptor agonistic activity towards Beta-2 adrenergic receptor of isolated guinea pig tracheal strip (exp 2)

Beta-1 adrenergic receptor (Cavia porcellus), sequence (B0FL73 1-467): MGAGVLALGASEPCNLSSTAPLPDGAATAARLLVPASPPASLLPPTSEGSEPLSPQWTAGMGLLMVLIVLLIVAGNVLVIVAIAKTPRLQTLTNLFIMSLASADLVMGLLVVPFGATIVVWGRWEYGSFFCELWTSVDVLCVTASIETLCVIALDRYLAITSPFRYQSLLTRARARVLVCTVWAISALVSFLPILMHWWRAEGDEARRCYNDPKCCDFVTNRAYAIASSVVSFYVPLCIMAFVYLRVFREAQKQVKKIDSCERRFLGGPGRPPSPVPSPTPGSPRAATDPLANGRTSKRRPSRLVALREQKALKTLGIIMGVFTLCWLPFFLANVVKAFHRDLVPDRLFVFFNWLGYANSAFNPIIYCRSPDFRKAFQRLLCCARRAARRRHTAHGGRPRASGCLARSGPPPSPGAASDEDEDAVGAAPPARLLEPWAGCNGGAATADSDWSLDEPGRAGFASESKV
Beta-2 adrenergic receptor (Cavia porcellus), sequence (Q8K4Z4 whole entry, looked up): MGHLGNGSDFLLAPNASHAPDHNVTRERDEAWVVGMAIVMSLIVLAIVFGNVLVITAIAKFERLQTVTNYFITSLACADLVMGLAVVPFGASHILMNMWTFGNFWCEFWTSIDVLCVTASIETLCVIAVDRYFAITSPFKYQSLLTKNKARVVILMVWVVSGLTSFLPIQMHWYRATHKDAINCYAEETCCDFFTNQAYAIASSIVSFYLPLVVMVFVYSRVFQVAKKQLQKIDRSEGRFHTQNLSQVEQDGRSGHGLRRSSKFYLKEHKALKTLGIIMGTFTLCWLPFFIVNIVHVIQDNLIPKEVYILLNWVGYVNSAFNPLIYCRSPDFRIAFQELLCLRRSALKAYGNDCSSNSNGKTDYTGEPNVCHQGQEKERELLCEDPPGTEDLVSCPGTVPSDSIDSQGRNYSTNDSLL
Beta-1 adrenergic receptor, sequence (P18090 whole entry): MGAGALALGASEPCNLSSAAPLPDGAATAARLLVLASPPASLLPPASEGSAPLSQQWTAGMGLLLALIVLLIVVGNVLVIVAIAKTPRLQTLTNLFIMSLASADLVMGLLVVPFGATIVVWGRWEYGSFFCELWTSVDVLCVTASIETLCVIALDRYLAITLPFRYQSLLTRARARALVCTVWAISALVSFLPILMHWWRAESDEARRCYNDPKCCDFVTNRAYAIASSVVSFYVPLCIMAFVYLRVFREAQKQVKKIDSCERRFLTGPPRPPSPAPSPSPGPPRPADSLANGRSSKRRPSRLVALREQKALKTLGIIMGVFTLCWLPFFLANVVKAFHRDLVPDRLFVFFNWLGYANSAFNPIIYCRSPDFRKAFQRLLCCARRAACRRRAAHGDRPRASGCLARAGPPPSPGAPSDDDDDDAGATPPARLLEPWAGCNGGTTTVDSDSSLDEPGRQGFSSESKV
Beta-2 adrenergic receptor, sequence (Q28044 whole entry): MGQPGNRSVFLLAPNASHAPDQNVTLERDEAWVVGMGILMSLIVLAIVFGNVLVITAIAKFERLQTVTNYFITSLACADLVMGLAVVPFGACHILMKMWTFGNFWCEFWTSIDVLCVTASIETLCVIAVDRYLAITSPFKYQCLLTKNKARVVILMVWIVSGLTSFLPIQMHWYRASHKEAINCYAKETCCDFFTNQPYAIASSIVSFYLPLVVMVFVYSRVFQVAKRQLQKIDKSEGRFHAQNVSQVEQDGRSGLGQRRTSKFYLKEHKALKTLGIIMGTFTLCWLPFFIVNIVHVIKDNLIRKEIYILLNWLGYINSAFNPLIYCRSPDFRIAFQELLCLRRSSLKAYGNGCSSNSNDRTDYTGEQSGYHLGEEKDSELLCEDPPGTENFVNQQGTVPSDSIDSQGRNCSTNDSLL

With `CC(C)N[C@@H]1CCc2c(ccc(O)c2O)[C@H]1O` the Ki [1] was 62 nM, the Ki [2] was 5800 nM and the Ki [3] was 760 nM. It also gave a pD2 [4] of 7.56, a Ki [5] of over 100000 nM and a pD2 [6] of 8.06. For the same compound, the pD2 [7] was under 3.5, the Intrinsic activity [8] was 0.72 and the pD2 [9] was 6.72. For the same compound, the pD2 [10] was 5.6, the Intrinsic activity [11] was 1 and the pD2 [12] was 8.41.
